Data on 2 compounds can be found in US20110263521A1, “PHARMACEUTICAL OR COSMETIC PREPARATIONS FOR TOPICAL AND/OR PARENTERAL APPLICATION, PREPARATION METHODS THEREOF AND USE OF SAME” (priority 2007, published 2011).

Data set [1] has as its target T1, hyaluronidase of bovine origin (Bos taurus, UniProt Q2YDK3).
T1 sequence (Q2YDK3 36-553): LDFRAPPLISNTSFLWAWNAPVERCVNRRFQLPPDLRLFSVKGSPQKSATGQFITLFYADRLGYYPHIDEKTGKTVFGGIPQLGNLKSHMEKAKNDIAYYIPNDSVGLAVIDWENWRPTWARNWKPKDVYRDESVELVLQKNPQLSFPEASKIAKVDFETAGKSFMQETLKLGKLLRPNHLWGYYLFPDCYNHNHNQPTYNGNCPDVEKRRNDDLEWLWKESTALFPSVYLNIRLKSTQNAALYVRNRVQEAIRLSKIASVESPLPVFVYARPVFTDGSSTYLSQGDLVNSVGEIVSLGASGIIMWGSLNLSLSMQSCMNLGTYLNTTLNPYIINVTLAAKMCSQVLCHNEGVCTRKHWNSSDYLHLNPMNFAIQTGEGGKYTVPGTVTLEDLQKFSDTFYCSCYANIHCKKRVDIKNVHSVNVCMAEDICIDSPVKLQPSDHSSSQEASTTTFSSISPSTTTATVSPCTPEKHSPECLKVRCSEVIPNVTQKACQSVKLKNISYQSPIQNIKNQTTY
As to the kind of experiment: Inhibitory effect of glycyrrhizin on hyaluronidase activity (turbidimetry of nonhydrolysed hyaluronic acid). The data set is classed as biochemical. The settings on record: without preincubation with the enzyme; read-out: concentration of GLZ which gives 50% inhibition (IC50) of the hyaluronidase activity. On the procedure:
Determination of the IC50 of GLZ, with or without Preincubation at 37° C.:
GLZ, at various concentrations, is or is not preincubated for 20 minutes at 37° C. in the presence of the enzyme. The enzyme reaction is triggered by adding the hyaluronic acid solution (time T0). After incubation for 20 minutes, the nonhydrolysed hyaluronic acid is precipitated by adding acidic bovine albumin solution.
In order to verify that the preincubation step has no effect on the stability of the hyaluronidase, an aliquot of a solution of the enzyme is placed at 37° C. for 20 minutes. Another aliquot is conserved in an ice bath for 19 minutes, and is then incubated at 37° C. for 1 minute. A solution of hyaluronic acid is then added to each aliquot (TO). After incubation for 15, 30 or 45 minutes, the nonhydrolysed hyaluronic acid is precipitated by addition of acidic bovine albumin solution.
After the precipitation step, the turbidimetry of the solutions is determined on a spectrophotometer at a wavelength of 600 nm. The optical density (OD) of these solutions is subtracted from the OD of a control solution of hyaluronic acid (of the same concentration) not hydrolysed by the enzyme. This difference in OD, which is inversely proportional to the concentration of hyaluronic acid, is used to measure the activity of the hyaluronidase.

For data set [2] the following is noted: humans; cited from earlier work.

Regarding `CC1(C)[C@@H](O[C@H]2O[C@H](C(=O)O)[C@@H](O)[C@H](O)[C@H]2O[C@@H]2O[C@H](C(=O)O)[C@@H](O)[C@H](O)[C@H]2O)CC[C@]2(C)[C@H]3C(=O)C=C4[C@@H]5C[C@@](C)(C(=O)O)CC[C@]5(C)CC[C@@]4(C)[C@]3(C)CC[C@@H]12` [GLZ, Glycyrrhizin], the IC50 in data set [1] is 400 µM.

As for hyaluronic acid, in data set [2], the “excretion in the urine” value is on record as “less than 1 % of total clearance”.
